Results reported in the supplement of paper PMC10307832.

Experiments:
Decitabine = compound: Nc1ncn([C@H]2C[C@H](O)[C@@H](CO)O2)c(=O)n1 [Decitabine]; experiment: relative viability (nuclei count vs DMSO), 5 days (fraction); higher = more cells survive
In short: (§1)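 Five library-drug doses spaced by √10 were pinned onto vehicle-anchored 1536-well plates of lung cancer cell lines that had been kept overnight at 37 °C. Cells went 5 days without medium change, then were fixed, permeabilised and Hoechst-stained together, imaged at 4× and counted by MetaXpress. Viability is the ratio of treated-well to vehicle-well nuclei, taken as a median over plates. Plates required control CV below 25% and at least one doubling.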

Halofuginone = compound: O=C(C[C@H]1NCCC[C@@H]1O)Cn1cnc2cc(Br)c(Cl)cc2c1=O (racemic) [Halofuginone]; experiment: as above
In short: as §1

With NCI-H460 the relative viability (Decitabine; 0.04 µM) was 0.929, the relative viability (Decitabine; 0.1265 µM) was 0.938 and the relative viability (Decitabine; 0.4 µM) was 0.766. For the same cell line, the relative viability (Decitabine; 1.265 µM) was 0.38, the relative viability (Decitabine; 2 µM, anchor plate) was 0.495 and the relative viability (Decitabine; 4 µM) was 0.265. It also gave a relative viability (Halofuginone; 0.001 µM) of 1.04, a relative viability (Halofuginone; 0.003162 µM) of 1.03 and a relative viability (Halofuginone; 0.01 µM) of 0.973. It also gave a relative viability (Halofuginone; 0.03162 µM) of 0.975 and a relative viability (Halofuginone; 0.1 µM) of 0.571.
For NCI-H2170, the relative viability (Decitabine; 0.04 µM) was 0.839, the relative viability (Decitabine; 0.1265 µM) was 0.746 and the relative viability (Decitabine; 0.4 µM) was 0.685. It also gave a relative viability (Decitabine; 1.265 µM) of 0.475, a relative viability (Decitabine; 2 µM, anchor plate) of 0.471 and a relative viability (Decitabine; 4 µM) of 0.473. It also gave a relative viability (Halofuginone; 0.001 µM) of 0.988, a relative viability (Halofuginone; 0.003162 µM) of 1.05 and a relative viability (Halofuginone; 0.01 µM) of 0.917. For the same cell line, the relative viability (Halofuginone; 0.03162 µM) was 0.982 and the relative viability (Halofuginone; 0.1 µM) was 0.991.
NCI-H727 showed a relative viability (Decitabine; 0.04 µM) of 0.733, a relative viability (Decitabine; 0.1265 µM) of 0.658 and a relative viability (Decitabine; 0.4 µM) of 0.662. It also gave a relative viability (Decitabine; 1.265 µM) of 0.579, a relative viability (Decitabine; 2 µM, anchor plate) of 0.903 and a relative viability (Decitabine; 4 µM) of 0.553. The relative viability (Halofuginone; 0.001 µM) was 1.01, the relative viability (Halofuginone; 0.003162 µM) was 0.88 and the relative viability (Halofuginone; 0.01 µM) was 0.788. The relative viability (Halofuginone; 0.03162 µM) was 0.848 and the relative viability (Halofuginone; 0.1 µM) was 0.65.
With NCI-H838 the relative viability (Decitabine; 0.04 µM) was 0.687, the relative viability (Decitabine; 0.1265 µM) was 0.59 and the relative viability (Decitabine; 0.4 µM) was 0.434. It also gave a relative viability (Decitabine; 1.265 µM) of 0.461, a relative viability (Decitabine; 2 µM, anchor plate) of 0.466 and a relative viability (Decitabine; 4 µM) of 0.314. It also gave a relative viability (Halofuginone; 0.001 µM) of 1, a relative viability (Halofuginone; 0.003162 µM) of 1 and a relative viability (Halofuginone; 0.01 µM) of 0.945. It also gave a relative viability (Halofuginone; 0.03162 µM) of 0.765 and a relative viability (Halofuginone; 0.1 µM) of 0.409.
With NCI-H1792 the relative viability (Decitabine; 0.04 µM) was 0.802, the relative viability (Decitabine; 0.1265 µM) was 0.857 and the relative viability (Decitabine; 0.4 µM) was 0.889. For the same cell line, the relative viability (Decitabine; 1.265 µM) was 0.534, the relative viability (Decitabine; 2 µM, anchor plate) was 0.526 and the relative viability (Decitabine; 4 µM) was 0.507. For the same cell line, the relative viability (Halofuginone; 0.001 µM) was 0.923, the relative viability (Halofuginone; 0.003162 µM) was 0.897 and the relative viability (Halofuginone; 0.01 µM) was 0.902. It also gave a relative viability (Halofuginone; 0.03162 µM) of 0.913 and a relative viability (Halofuginone; 0.1 µM) of 0.633.
H3255 was tested, and the relative viability (Decitabine; 0.04 µM) was 0.636, the relative viability (Decitabine; 0.1265 µM) was 0.857 and the relative viability (Decitabine; 0.4 µM) was 0.702. For the same cell line, the relative viability (Decitabine; 1.265 µM) was 0.668, the relative viability (Decitabine; 2 µM, anchor plate) was 0.657 and the relative viability (Decitabine; 4 µM) was 0.666. The relative viability (Halofuginone; 0.001 µM) was 1.07, the relative viability (Halofuginone; 0.003162 µM) was 0.99 and the relative viability (Halofuginone; 0.01 µM) was 0.88. The relative viability (Halofuginone; 0.03162 µM) was 0.95 and the relative viability (Halofuginone; 0.1 µM) was 0.992.
For EPLC-272H, the relative viability (Decitabine; 0.04 µM) was 0.6, the relative viability (Decitabine; 0.1265 µM) was 0.749 and the relative viability (Decitabine; 1.265 µM) was 0.46. For the same cell line, the relative viability (Decitabine; 2 µM, anchor plate) was 0.386, the relative viability (Decitabine; 4 µM) was 0.407 and the relative viability (Halofuginone; 0.001 µM) was 1.07. The relative viability (Halofuginone; 0.003162 µM) was 1.02, the relative viability (Halofuginone; 0.01 µM) was 0.921 and the relative viability (Halofuginone; 0.03162 µM) was 1.01. The relative viability (Halofuginone; 0.1 µM) was 0.889.
In the case of NCI-H647, the relative viability (Decitabine; 0.04 µM) is reported as 0.732, the relative viability (Decitabine; 0.1265 µM) is reported as 0.817 and the relative viability (Decitabine; 0.4 µM) is reported as 0.451. For the same cell line, the relative viability (Decitabine; 1.265 µM) was 0.249, the relative viability (Decitabine; 2 µM, anchor plate) was 0.403 and the relative viability (Decitabine; 4 µM) was 0.233. The relative viability (Halofuginone; 0.001 µM) was 1.11, the relative viability (Halofuginone; 0.003162 µM) was 0.971 and the relative viability (Halofuginone; 0.01 µM) was 0.905. It also gave a relative viability (Halofuginone; 0.03162 µM) of 0.815 and a relative viability (Halofuginone; 0.1 µM) of 0.599.
NCI-H1648 gave a relative viability (Decitabine; 0.04 µM) of 0.82, a relative viability (Decitabine; 0.1265 µM) of 0.733 and a relative viability (Decitabine; 0.4 µM) of 0.474. The relative viability (Decitabine; 1.265 µM) was 0.387, the relative viability (Decitabine; 2 µM, anchor plate) was 0.509 and the relative viability (Decitabine; 4 µM) was 0.366. For the same cell line, the relative viability (Halofuginone; 0.001 µM) was 1.12, the relative viability (Halofuginone; 0.003162 µM) was 0.809 and the relative viability (Halofuginone; 0.01 µM) was 1.06. The relative viability (Halofuginone; 0.03162 µM) was 0.951 and the relative viability (Halofuginone; 0.1 µM) was 1.13.
Work on LXF-289 yielded a relative viability (Decitabine; 0.04 µM) of 0.778, a relative viability (Decitabine; 0.1265 µM) of 0.651 and a relative viability (Decitabine; 0.4 µM) of 0.441. It also gave a relative viability (Decitabine; 1.265 µM) of 0.345, a relative viability (Decitabine; 2 µM, anchor plate) of 0.387 and a relative viability (Decitabine; 4 µM) of 0.312. For the same cell line, the relative viability (Halofuginone; 0.001 µM) was 0.98, the relative viability (Halofuginone; 0.003162 µM) was 1.02 and the relative viability (Halofuginone; 0.01 µM) was 0.994. It also gave a relative viability (Halofuginone; 0.03162 µM) of 1.01 and a relative viability (Halofuginone; 0.1 µM) of 1.
Work on EBC-1 yielded a relative viability (Decitabine; 0.04 µM) of 0.626, a relative viability (Decitabine; 0.1265 µM) of 0.456 and a relative viability (Decitabine; 0.4 µM) of 0.313. The relative viability (Decitabine; 1.265 µM) was 0.272, the relative viability (Decitabine; 4 µM) was 0.246 and the relative viability (Halofuginone; 0.001 µM) was 1.06. The relative viability (Halofuginone; 0.003162 µM) was 0.946, the relative viability (Halofuginone; 0.01 µM) was 0.829 and the relative viability (Halofuginone; 0.03162 µM) was 0.496. For the same cell line, the relative viability (Halofuginone; 0.1 µM) was 0.231.
Work on NCI-H1650 yielded a relative viability (Decitabine; 0.04 µM) of 0.599, a relative viability (Decitabine; 0.1265 µM) of 0.657 and a relative viability (Decitabine; 0.4 µM) of 0.507. For the same cell line, the relative viability (Decitabine; 1.265 µM) was 0.346, the relative viability (Decitabine; 2 µM, anchor plate) was 0.422 and the relative viability (Decitabine; 4 µM) was 0.338. For the same cell line, the relative viability (Halofuginone; 0.001 µM) was 1, the relative viability (Halofuginone; 0.003162 µM) was 1.01 and the relative viability (Halofuginone; 0.01 µM) was 0.883. It also gave a relative viability (Halofuginone; 0.03162 µM) of 0.811 and a relative viability (Halofuginone; 0.1 µM) of 0.19.
NCI-H1755 was tested, and the relative viability (Decitabine; 0.04 µM) was 0.95, the relative viability (Decitabine; 0.1265 µM) was 0.949 and the relative viability (Decitabine; 0.4 µM) was 0.848. It also gave a relative viability (Decitabine; 1.265 µM) of 0.598, a relative viability (Decitabine; 2 µM, anchor plate) of 0.717 and a relative viability (Decitabine; 4 µM) of 0.515. The relative viability (Halofuginone; 0.001 µM) was 1.02, the relative viability (Halofuginone; 0.003162 µM) was 1.04 and the relative viability (Halofuginone; 0.01 µM) was 1.01. It also gave a relative viability (Halofuginone; 0.03162 µM) of 1.01 and a relative viability (Halofuginone; 0.1 µM) of 0.978.
